{
  "source": "ChEMBL document CHEMBL5608163",
  "about": "“Structure modification of anoplin for fighting resistant bacteria” (Eur J Med Chem, 2024)",
  "key": {"Erythrocyte": {"tested_on": "Erythrocyte", "assay": "Hemolytic activity in erythrocytes (unknown origin)", "type": "toxicity, cell-based"}, "[1]": {"assay": "Hemolytic activity against Red blood cells (unknown origin) incubated for 1 hr by spectrophotometric analysis", "type": "toxicity, cell-based, Erythrocyte"}, "Staphylococcus aureus [2]": {"tested_on": "Staphylococcus aureus", "assay": "Antibacterial activity against Staphylococcus aureus assessed as bacterial growth inhibition incubated for 20 hrs by broth microdilution assay", "type": "functional"}, "Bacillus subtilis [3]": {"tested_on": "Bacillus subtilis", "assay": "Antibacterial activity against Bacillus subtilis assessed as reduction in bacterial growth incubated for 20 hrs by broth microdilution assay", "type": "functional"}, "Escherichia coli [4]": {"tested_on": "Escherichia coli", "assay": "Antibacterial activity against Escherichia coli assessed as reduction in bacterial growth incubated for 20 hrs by broth microdilution assay", "type": "functional"}, "Pseudomonas aeruginosa [5]": {"tested_on": "Pseudomonas aeruginosa", "assay": "Antibacterial activity against Pseudomonas aeruginosa assessed as reduction in bacterial growth incubated for 20 hrs by broth microdilution assay", "type": "functional"}, "[6]": {"tested_on": "Mycolicibacterium smegmatis", "assay": "Antimycobacterial activity against Mycobacterium smegmatis mc2 155 assessed as reduction in bacterial cell growth incubated for 48 hrs by resazurin dye based assay", "type": "functional"}, "Bacillus subtilis [7]": {"tested_on": "Bacillus subtilis", "assay": "Antibacterial activity against Bacillus subtilis assessed as reduction in bacterial growth", "type": "functional"}, "Escherichia coli [8]": {"tested_on": "Escherichia coli", "assay": "Antibacterial activity against Escherichia coli DH5a assessed as reduction in bacterial growth", "type": "functional"}, "Pseudomonas aeruginosa [9]": {"tested_on": "Pseudomonas aeruginosa", "assay": "Antibacterial activity against Pseudomonas aeruginosa PAO1 assessed as reduction in bacterial growth", "type": "functional"}, "Zymomonas mobilis": {"tested_on": "Zymomonas mobilis", "assay": "Antibacterial activity against Zymomonas mobilis ATCC 10988 assessed as reduction in bacterial growth", "type": "functional"}, "[10]": {"assay": "Hemolytic activity in human erythrocytes", "type": "toxicity, cell-based, Erythrocyte"}, "Staphylococcus aureus [11]": {"tested_on": "Staphylococcus aureus", "assay": "Antibacterial activity against Staphylococcus aureus ATCC 25923 assessed as reduction in bacterial growth incubated for 48 hrs by Mueller-Hinton broth based microdilution method", "type": "functional"}, "Escherichia coli [12]": {"tested_on": "Escherichia coli", "assay": "Antibacterial activity against Escherichia coli ATCC 25922 assessed as reduction in bacterial growth incubated for 48 hrs by Mueller-Hinton broth based microdilution method", "type": "functional"}, "[13]": {"assay": "Hemolytic activity in human erythrocyte incubated for 1 hr", "type": "toxicity, cell-based", "conditions": "erythrocytes"}, "Staphylococcus aureus [14]": {"tested_on": "Staphylococcus aureus", "assay": "Antibacterial activity against methicillin resistant Staphylococcus aureus ATCC 33591 assessed as inhibition of bacterial growth incubated for 16 to 20 hrs by broth micro-dilution method", "type": "functional", "conditions": "time 16-20 hrs"}, "Enterococcus faecium": {"tested_on": "Enterococcus faecium", "assay": "Antibacterial activity against Vancomycin resistant Enterococcus faecium ATCC 700221 assessed as inhibition of bacterial growth incubated for 16 to 20 hrs by broth micro-dilution method", "type": "functional", "conditions": "time 16-20 hrs"}},
  "note": "Peptide text beside a SMILES is read from it. * marks the point of attachment. Heptadecanoyl = CCCCCCCCCCCCCCCCC(=O)*; Nonanoyl = CCCCCCCCC(=O)*",
  "data": [
    {"molecule": "CC[C@@H](C)[C@@H](NC(=O)[C@H](CCCNC(=N)N)NC(=O)[C@H](CCCCN)NC(=O)[C@H](CC(C)C)NC(=O)[C@H](CC1CCCCC1)NC(=O)CN)C(=O)N[C@@H](CCCCN)C(=O)N[C@H](C(=O)N[C@@H](CC(C)C)C(=O)N[C@@H](CC1CCCCC1)C(N)=O)[C@@H](C)O", "values": [
      {"measurement": "HC10", "setting": "Erythrocyte", "result": 225.6, "unit": "µM"}
    ]},
    {"molecule": "CC[C@H](C)[C@H](NC(=O)[C@H](CCCCN)NC(=O)[C@H](CCCCN)NC(=O)[C@H](C)NC(=O)[C@H](CC(C)C)NC(=O)[C@H](C)NC(=O)[C@H](C)NC(=O)[C@H](CC(C)C)NC(=O)[C@H](C)NC(=O)[C@H](CCCCN)NC(=O)[C@H](CC(C)C)NC(=O)[C@H](CC(N)=O)NC(=O)[C@@H](NC(=O)[C@H](CC(C)C)NC(=O)[C@H](CC(C)C)NC(=O)[C@H](CC(C)C)NC(=O)[C@@H](NC(=O)[C@H](CCCCN)NC(=O)[C@@H](NC(=O)[C@H](CCCNC(=N)N)NC(=O)[C@H](CCCCN)NC(=O)[C@H](CC(C)C)NC(=O)[C@H](CC(C)C)NC(=O)CN)[C@@H](C)CC)[C@@H](C)O)[C@@H](C)CC)C(=O)N[C@@H](CC(C)C)C(N)=O", "note": "(H-GLLKRIKTLLLINLKALAALAKKIL-NH2)", "values": [
      {"measurement": "HC50 at 1 h", "setting": "[1]", "result": 35.6, "unit": "µM"},
      {"measurement": "MIC", "setting": "Staphylococcus aureus [2]", "result": 8, "unit": "µM"},
      {"measurement": "MIC", "setting": "Bacillus subtilis [3]", "result": 8, "unit": "µM"},
      {"measurement": "MIC", "setting": "Escherichia coli [4]", "result": 8, "unit": "µM"},
      {"measurement": "MIC", "setting": "Pseudomonas aeruginosa [5]", "result": 16, "unit": "µM"}
    ]},
    {"molecule": "CCCCCCCCC(=O)NCC(=O)N[C@@H](CC(C)C)C(=O)N[C@@H](CC(C)C)C(=O)N[C@@H](CCCCN)C(=O)N[C@@H](Cc1ccccc1)C(=O)N[C@H](C(=O)N[C@@H](CCCCN)C(=O)N[C@@H](CCCCN)C(=O)N[C@@H](CC(C)C)C(=O)N[C@@H](CC(C)C)C(N)=O)[C@@H](C)CC", "note": "(Nonanoyl-GLLKFIKKLL-NH2)", "values": [
      {"measurement": "MIC", "setting": "[6]", "result": 3.86, "unit": "µM"},
      {"measurement": "MIC", "setting": "Bacillus subtilis [7]", "result": 8, "unit": "µM"},
      {"measurement": "MIC", "setting": "Escherichia coli [8]", "result": 23.1, "unit": "µM"},
      {"measurement": "MIC", "setting": "Pseudomonas aeruginosa [9]", "result": 3.86, "unit": "µM"},
      {"measurement": "MIC", "setting": "Zymomonas mobilis", "result": 3.86, "unit": "µM"},
      {"measurement": "HC50", "setting": "[10]", "result": "< 386", "unit": "µM"}
    ]},
    {"molecule": "CCCCCCCCCCCCCCCCC(=O)NCC(=O)N[C@@H](CC(C)C)C(=O)N[C@@H](CC(C)C)C(=O)N[C@@H](CCCCN)C(=O)N[C@@H](CCCNC(=N)N)C(N)=O", "note": "(Heptadecanoyl-GLLKR-NH2)", "values": [
      {"measurement": "MIC", "setting": "Staphylococcus aureus [11]", "result": 3.94, "unit": "µM"},
      {"measurement": "MIC", "setting": "Escherichia coli [12]", "result": 7.88, "unit": "µM"},
      {"measurement": "HC50 at 1 h", "setting": "[13]", "result": 80.2, "unit": "µM"}
    ]},
    {"molecule": "CC[C@@H](C)[C@@H](NC(=O)[C@H](CCCCN)NC(=O)[C@H](CCCCN)NC(=O)[C@H](CC(C)C)NC(=O)[C@H](CC(C)C)NC(=O)CN)C(=O)N[C@@H](CCCCN)C(=O)N[C@@H](CCCCN)C(=O)N[C@@H](CC(C)C)C(=O)N[C@@H](CC(C)C)C(N)=O", "values": [
      {"measurement": "MIC", "setting": "Staphylococcus aureus [14]", "result": 1020, "unit": "µM"},
      {"measurement": "MIC", "setting": "Enterococcus faecium", "result": 341, "unit": "µM"},
      {"measurement": "HC10", "setting": "Erythrocyte", "result": 1962.4, "unit": "µM"}
    ]},
    {"molecule": "CCCCCCCCCCCCCCCCC(=O)NCC(=O)N[C@@H](CC(C)C)C(=O)N[C@@H](CC(C)C)C(=O)N[C@@H](CCCCN)C(=O)N[C@@H](CCCNC(=N)N)C(=O)N[C@H](C(N)=O)[C@@H](C)CC", "note": "(Heptadecanoyl-GLLKRI-NH2)", "values": [
      {"measurement": "MIC", "setting": "Staphylococcus aureus [11]", "result": 0.66, "unit": "µM"},
      {"measurement": "MIC", "setting": "Escherichia coli [12]", "result": 3.47, "unit": "µM"},
      {"measurement": "HC50 at 1 h", "setting": "[13]", "result": 8.01, "unit": "µM"}
    ]},
    {"molecule": "CC(C)C[C@H](NC(=O)CN)C(=O)N[C@@H](CC(C)C)C(=O)N[C@@H](CCCCN)C(=O)N[C@@H](CCCNC(=N)N)C(=O)N[C@H](Cc1ccc2ccccc2c1)C(=O)N[C@@H](CCCCN)C(=O)N[C@H](C(=O)N[C@@H](CC(C)C)C(=O)N[C@@H](CC1CCCCC1)C(N)=O)[C@@H](C)O", "values": [
      {"measurement": "MIC", "setting": "Staphylococcus aureus [14]", "result": 28.4, "unit": "µM"},
      {"measurement": "MIC", "setting": "Enterococcus faecium", "result": 3.2, "unit": "µM"},
      {"measurement": "HC10", "setting": "Erythrocyte", "result": 74.3, "unit": "µM"}
    ]},
    {"molecule": "CCCCCCCCCCCCCCCCC(=O)NCC(=O)N[C@@H](CC(C)C)C(=O)N[C@@H](CC(C)C)C(=O)N[C@@H](CCCCN)C(=O)N[C@@H](CCCNC(=N)N)C(=O)N[C@H](C(=O)N[C@@H](CCCCN)C(N)=O)[C@@H](C)CC", "note": "(Heptadecanoyl-GLLKRIK-NH2)", "values": [
      {"measurement": "MIC", "setting": "Staphylococcus aureus [11]", "result": 0.76, "unit": "µM"},
      {"measurement": "MIC", "setting": "Escherichia coli [12]", "result": 1.53, "unit": "µM"},
      {"measurement": "HC50 at 1 h", "setting": "[13]", "result": 35.4, "unit": "µM"}
    ]}
  ]
}
